Values joined by “and” are separate entries in the source; they are usually repeats but may differ in a detail not shown here. Identical values can stand only once. Like-named read-outs stand apart in the source and are kept apart here. Blank lines part the entries; values can stand above or below the compound they belong to.
Key:
MCF-7TAX cells [1] = format: cell-based; settings: for resistance factor (IC50 for MCF-7TAX cells divided by IC50 for MCF-7 cells): 24 h drug treatment, clonogenic assay
Description: (§1) Twice weekly, nonadherent (dead) cells were removed by discarding the existing medium and replacing it with fresh, drug-containing medium. […] At the end of the two-week period, all remaining viable cells were released by trypsinization, diluted 10-fold into PBS, and harvested by centrifugation. The cells were resuspended in fresh H-21 medium, with several aliquots removed for storage and future analysis. […] Nonadherent dead cells were again removed as described above and the process repeated until a drug dose was reached where all cells in the population were killed. Cells that grew at the maximally-tolerated drug concentrations were deemed to be “terminally selected”.
(§2) Thus, the concentration of valspodar used in some experiments was increased to 10 μM.
(§3) Briefly, 5 ml of H21 medium with 10% fetal bovine serum was introduced into 12 tissue culture flasks (25 cm^2 area) and each flask seeded with 2.5×10^5 cells. […] Each sample was vortexed vigorously for 10 s to ensure even distribution of cells within the viscous medium. 1.2 ml of each cellular suspension were placed into 6 well plates and incubated for a minimum of one week at 37° C./5% CO2 until large colonies of cells were visible.

MCF-7DOX cells [2] = format: cell-based; settings: for resistance factor (IC50 for MCF-7DOX cells divided by IC50 for MCF-7 cells): 24 h drug treatment, clonogenic assay
Description: as §1, §2, §3

MCF-7 cells [3] = experiment: Clonogenic assay, drug-sensitive parental cells; settings: for IC50: Homo sapiens
MCF-7 cells [4] = experiment: Selection of MCF-7 cells in increasing drug concentrations (maximally tolerated dose); format: cell-based, human; settings: 3-fold dose steps, terminally selected
Procedure: Twice weekly, nonadherent (dead) cells were removed by discarding the existing medium and replacing it with fresh, drug-containing medium. […] At the end of the two-week period, all remaining viable cells were released by trypsinization, diluted 10-fold into PBS, and harvested by centrifugation. The cells were resuspended in fresh H-21 medium, with several aliquots removed for storage and future analysis. The remaining cells were incubated with drug at a concentration 3-fold higher than the previous dose. Nonadherent dead cells were again removed as described above and the process repeated until a drug dose was reached where all cells in the population were killed. Cells that grew at the maximally-tolerated drug concentrations were deemed to be “terminally selected”. The maximally-tolerated drug doses during the selection process were 0.3 μM and 6.6 nM for doxorubicin and paclitaxel, respectively.

MCF-7DOX cells [5] = experiment: [3H]-paclitaxel / [14C]-5-fluorouracil accumulation by liquid scintillation; settings: 10 nM paclitaxel, 24 hours
procaspase-9 [6] = experiment: Immunoblotting of whole cell extracts of MCF-7 cells after drug treatment; format: cell-based, human; settings: 24 h, 9 nM doxorubicin or 0.56 nM paclitaxel
Procedure: (§4) Extraction of proteins from whole cells was performed using RIPA buffer [1% Nonidet P-40, 0.5% sodium deoxycholate, 0.1% SDS, and 1 Complete™ protease inhibitor tablet (Roche Pharmaceuticals, Baie d'Urfe, QC) in 50 ml of PBS]. Prior to use, the RIPA buffer was supplemented with sodium orthovanadate and phenylmethylsulfonyl fluoride at final concentrations of 1 mM and 0.1 mg/ml, respectively. Cultured cells were grown as a monolayer and allowed to reach 70-90% confluence in 10 cm tissue culture plates. Twenty-four hours prior to extraction, some plates of cells were treated with 9 nM doxorubicin or 0.56 nM paclitaxel. After drug treatment, the medium was removed and the cells rinsed twice with PBS. All further steps were carried out on ice to minimize denaturation/proteolysis of the proteins. Chilled RIPA buffer (0.6 ml) was added to each plate, after which the cells were scraped from the plate using a Teflon tape-coated razor blade, and transferred to a 1.5 ml microfuge tube. An additional 0.3 ml of RIPA buffer was added to the plate and the resultant suspension was combined with the lysate. The sample was then passed repeatedly through a 21 gauge needle to lyse the cells and shear any DNA present. The lysates were then incubated on ice for 30 minutes, after which they were clarified by centrifugation at 15,000 g for 20 minutes at 4° C. The supernatants were then removed, mixed well, and aliquots placed in 0.5 ml microfuge tubes and stored at −80° C.
(§5) Proteins ([…]) from whole cell extracts were loaded into each lane of a 10% SDS-polyacrylamide gel, on duplicate gels. After electrophoresis, one of the gels was stained with Coomassie Brilliant Blue R to confirm that similar amounts of protein were loaded on gels. A second gel was electrophoretically transferred to a nitrocellulose membrane and the membrane incubated for one hour in blocking buffer [TBS buffer (20 mM Tris, 150 mM NaCl, pH 7.5) supplemented with 5% skim milk powder] to occupy all remaining protein-binding sites on the membrane. After blocking, the membranes were incubated for 1.5 hours at room temperature with an antibody to either caspase-3 (Santa Cruz Biotechnology, Santa Cruz, Calif., clone E-8), caspase-7 (Pharmingen Laboratories, San Diego, Calif., clone B94-1) or caspase-9 (Santa Cruz Biotechnology, Santa Cruz, Calif., clone C-17). Both antibodies were diluted 1:500 in blocking buffer containing 0.1% Tween 20. The primary antibody was then discarded and the membrane washed exhaustively with TBST (TBS buffer supplemented with 0.1% Tween 20). […]

procaspase-7 = experiment: as above; format: cell-based, human; settings: 24 h drug treatment
Procedure: as §4, §5

procaspase-9 [7] = experiment: Doxorubicin treatment of PA1 ovarian cell line, procaspase-9 level; format: cell-based; settings: PA1 cells
MCF-7DOX cells [8] = experiment: Cellular doxorubicin uptake by flow cytometry; settings: 2 μM doxorubicin, steady state
MCF-7TAX cells [9] = settings: 2 μM doxorubicin
[10] = MCF7, read-out: IC50 (uptake concentration near the IC50)
[11] = MCF7, read-out: concentration required to kill 50% of the cells (IC50)

resistance factor (IC50 for MCF-7TAX cells divided by IC50 for MCF-7 cells) (MCF-7TAX cells [1]): 42 fold
resistance factor (IC50 for MCF-7DOX cells divided by IC50 for MCF-7 cells) (MCF-7DOX cells [2]): 4,700 fold and > 4,000 fold
SMILES: CC(=O)O[C@H]1C(=O)[C@@]2(C)[C@H]([C@H](OC(=O)c3ccccc3)[C@]3(O)C[C@H](OC(=O)[C@H](O)[C@@H](NC(=O)c4ccccc4)c4ccccc4)C(C)=C1C3(C)C)[C@]1(OC(C)=O)CO[C@@H]1C[C@@H]2O [paclitaxel]
maximally-tolerated drug dose during the selection process (MCF-7 cells [4]): 6.6 nM
paclitaxel accumulated as percent of that in MCF-7 cells (MCF-7DOX cells [5]): 2.5%
effect on procaspase-9 levels (procaspase-9 [6]): no effect
effect on procaspase-7 levels (procaspase-7): without effect
IC50 (MCF-7 cells [3]; [10]): ~10 nM
IC50 (MCF-7 cells [3]; [11]): 0.56 nM

resistance factor (IC50 for MCF-7TAX cells divided by IC50 for MCF-7 cells) (MCF-7TAX cells [1]): Very little to no cross-resistance
SMILES: CN(Cc1cnc2nc(N)nc(N)c2n1)c1ccc(C(=O)N[C@@H](CCC(=O)O)C(=O)O)cc1 [methotrexate]

resistance factor (IC50 for MCF-7TAX cells divided by IC50 for MCF-7 cells) (MCF-7TAX cells [1]): Very little to no cross-resistance
SMILES: CCc1c2c(nc3ccc(OC(=O)N4CCC(N5CCCCC5)CC4)cc13)-c1cc3c(c(=O)n1C2)COC(=O)[C@]3(O)CC [irinotecan]

resistance factor (IC50 for MCF-7TAX cells divided by IC50 for MCF-7 cells) (MCF-7TAX cells [1]): Very little to no cross-resistance
resistance factor (IC50 for MCF-7DOX cells divided by IC50 for MCF-7 cells) (MCF-7DOX cells [2]): 31 fold
SMILES: COc1cc([C@@H]2c3cc4c(cc3[C@@H](O[C@@H]3O[C@@H]5CO[C@@H](C)O[C@H]5[C@H](O)[C@H]3O)[C@H]3COC(=O)[C@H]23)OCO4)cc(OC)c1O [etoposide]

resistance factor (IC50 for MCF-7DOX cells divided by IC50 for MCF-7 cells) (MCF-7DOX cells [2]): approximately 4600 fold
SMILES: CC[C@]1(O)C[C@@H]2CN(CCc3c([nH]c4ccccc34)[C@@](C(=O)OC)(c3cc4c(cc3OC)N(C)[C@H]3[C@@](O)(C(=O)OC)[C@H](OC(C)=O)[C@]5(CC)C=CCN6CC[C@]43[C@@H]65)C2)C1 [vinblastine, Vinblastine]

Continued, compound first:

SMILES: C/C=C/C[C@@H](C)C(=O)[C@H]1C(=O)N[C@@H](C(C)C)C(=O)N(C)CC(=O)N(C)[C@@H](CC(C)C)C(=O)N[C@@H](C(C)C)C(=O)N(C)[C@@H](CC(C)C)C(=O)N[C@@H](C)C(=O)N[C@H](C)C(=O)N(C)[C@@H](CC(C)C)C(=O)N(C)[C@@H](CC(C)C)C(=O)N(C)[C@@H](C(C)C)C(=O)N1C [valspodar]
concentration tolerated without resulting in cell killing (MCF-7TAX cells [1]; MCF-7TAX cells): up to 10 μM
concentration tolerated without resulting in cell killing (MCF-7DOX cells [2]; MCF-7DOX cells): up to 10 μM
effect on 5-fluorouracil sensitivity (MCF-7 cells [3]; MCF-7 cells): no effect
maximum amount which could be added without inducing significant cytotoxicity (MCF-7 cells [3]; MCF-7 cells, one hour at 37° C.): Two
effect on cell viability (MCF-7 cells [3]; non-expressing MCF-7 cells, 2 μM valspodar (data not shown)): only a slight effect

SMILES: COc1cccc2c1C(=O)c1c(O)c3c(c(O)c1C2=O)C[C@@](O)(C(=O)CO)C[C@@H]3O[C@H]1C[C@H](N)[C@@H](O)[C@H](C)O1 [epirubicin]
resistance factor (IC50 for MCF-7TAX cells divided by IC50 for MCF-7 cells) (MCF-7TAX cells [1]): ~13 fold
resistance factor (IC50 for MCF-7DOX cells divided by IC50 for MCF-7 cells) (MCF-7DOX cells [2]): 124 fold

SMILES: O=c1[nH]cc(F)c(=O)[nH]1 [5-fluorouracil]
resistance factor (IC50 for MCF-7TAX cells divided by IC50 for MCF-7 cells) (MCF-7TAX cells [1]): 13 fold
IC50 (MCF-7 cells [3]; [10]): ~1000 nM

SMILES: CC(=O)O[C@@]12CO[C@@H]1C[C@H](O)[C@@]1(C)C(=O)[C@H](O)C3=C(C)[C@@H](OC(=O)[C@H](O)[C@@H](NC(=O)OC(C)(C)C)c4ccccc4)C[C@@](O)([C@@H](OC(=O)c4ccccc4)[C@H]21)C3(C)C [docetaxel]
resistance factor (IC50 for MCF-7TAX cells divided by IC50 for MCF-7 cells) (MCF-7TAX cells [1]): 46 fold
resistance factor (IC50 for MCF-7DOX cells divided by IC50 for MCF-7 cells) (MCF-7DOX cells [2]): 14,600 fold

SMILES: O=P1(N(CCCl)CCCl)NCCCO1 (stereo not shown) [cyclophosphamide]
resistance factor (IC50 for MCF-7TAX cells divided by IC50 for MCF-7 cells) (MCF-7TAX cells [1]): Very little to no cross-resistance

SMILES: COc1cccc2c1C(=O)c1c(O)c3c(c(O)c1C2=O)C[C@@](O)(C(=O)CO)C[C@@H]3O[C@H]1C[C@H](N)[C@H](O)[C@H](C)O1 [doxorubicin, Doxorubicin]
effect on procaspase-9 levels (procaspase-9 [7]): decrease in procaspase-9 levels
maximally-tolerated drug dose during the selection process (MCF-7 cells [4]): 300 nM
reduction of doxorubicin accumulation compared to MCF-7 cells (MCF-7DOX cells [8]): 91.4%
doxorubicin uptake as percent of uptake in MCF-7 cells (MCF-7TAX cells [9]): 68.6%
effect on procaspase-9 levels (procaspase-9 [6]): elevated levels
effect on procaspase-7 levels (procaspase-7): upregulated
resistance factor (IC50 for MCF-7DOX cells divided by IC50 for MCF-7 cells) (MCF-7DOX cells [2]): 52 fold
IC50 (MCF-7 cells [3]; [11]): 9 nM

SMILES: N.N.[Cl][Pt][Cl] [cisplatin]
resistance factor (IC50 for MCF-7TAX cells divided by IC50 for MCF-7 cells) (MCF-7TAX cells [1]): Very little to no cross-resistance

Reference: patent US7588903B2, “Use of isogenic drug-resistant cell lines to determine the sequence of chemotherapeutic drug treatment” (priority 2003, dated 2009)
